From US9492418B2, “Inhibitors of PFKFB3 for cancer therapy” (Board of Supervisors of Louisiana State University And …, priority 2011, dated 2016)

Experiments:
MCF7 = assay: Cell growth inhibition; assay type: cell-based; settings: Homo sapiens
Description: Cell growth inhibition was determined by an XTT-based in-vitro toxicology assay (Sigma-Aldrich) or trypan blue staining. Cells were plated at a density of 3.5×10^4 per well in a 24-well plate in DMEM containing 10% FCS. These cells were allowed to attach for 24 hours, and the media were replaced with fresh media containing either vehicle (dimethyl sulfoxide) or appropriate concentrations of test compounds. After 36 hours of incubation with either vehicle or compounds, cells were trypsinized and cell viability was determined by the trypan blue exclusion assay using a hemacytometer. For the XTT assay, cells were seeded into 96-well cell culture plates at a density of 0.6×10^4 per well. After the appropriate treatment described above, cells were incubated with 0.1 mg/ml of 2,3-bis(2-methoxy-4-nitro-5-sulfophenyl)-5-[(phenylamino)carbonyl]-2H-tetrazolium hydroxide (XTT) for 4 hours, and then cell number was determined by the absorbance at 470 nm, which is proportional to the number of cells that remained attached to the plate. GI50s were calculated as the inhibitor concentration needed for 50% of vehicle-treated cell growth. The appearance of apoptotic or necrotic cells was determined by flow cytometric analysis of cells double stained with Annexin V-FITC and propidium iodide (PI). […]

human PFKFB3 [1] = molecular target: T1, human PFKFB3 (Homo sapiens, UniProt Q16875); assay: 2-Kase assay and kinetic analysis (enzyme-coupled Fru-2,6-BP assay); assay type: biochemical; parameters: 443 amino acid residues of the full-length protein of 520 residues; 6xHis; made in house; host or cells: Escherichia coli BL21(DE3) pLysS; settings: for Inhibition (type): versus Fru-6-P
Description: To determine steady-state initial reaction rates, the 2-Kase reactions were performed first and the Fru-2,6-BP produced was measured by a conventional enzyme-coupled kinetics assay as described previously. The compounds, N4A and RBC2 came from the National Cancer Institute as indicated in Example 1. […] Initial rates of decrease in absorbance (Abs) at 340 nm were corrected with the rate of the control reaction in which no Fru-2,6-BP was present. Negative controls were carried out in the absence of enzyme and positive controls indicate the reaction in the presence of enzyme without inhibitor compounds. […] IC50 values were determined in quadruplicate. For the kinetic studies, concentrations of one of substrate and inhibitor were varied, and decrease in absorbance at 340 nm was measured. The inhibition patterns were analyzed using the program written by Cleland, in which Ki is the dissociation constants for the inhibitor from enzyme-inhibitor complex. For Selectivity studies, the 2-Kase assays were performed first and the F-2,6-P2 produced was measured by an enzyme coupled kinetics assay as described above. The His6-tagged PFKFB isoforms, PFKFB1, PFKFB2, and PFKFB4 were expressed in Escherichia coli C41(DE3) and purified using Ni-NTA affinity columns.

human PFKFB3 [2] = molecular target: T1, human PFKFB3; assay: Biochemical throughput screening of NCI Diversity Set II and steady-state inhibition kinetics; parameters: 443 amino acid residues of the full-length protein of 520 residues; 6xHis; made in house; settings: against F-6-P and ATP
Description: To generate a framework of actives and non-actives for virtual screening, a throughput study of 1,364 NCI compounds was carried out. The inhibition extent of 10 μM of each compound, in substrate saturation conditions, was quantified and the results of the top 50 compounds are shown in FIG. 1. An arbitrary cutoff was chosen at 75% inhibition to describe compounds that were to be considered ‘potential’ actives. Based on this cutoff, 10 compounds were identified from the original 1,364.
To select the true positives, the 10 potential actives were subsequently tested for specificity for the F-6-P site, because the virtual screening was targeted for the F-6-P site. Using conventional steady state inhibition kinetics, 6 compounds were selected as the ‘true actives’ (T-actives), and these six compounds are shown in FIG. 3.
The recombinant human PFKFB3 was expressed and purified as previously described.[20] The 1,364 individual compounds of NCI's Diversity Set II were acquired from the NCI.
The 2-kinase activity assay for throughput screening was performed using a F-2,6-P2 assay modified for 96-well plates from the conventional method.[21] […] The reactions of seconds step were started by adding 0.5 mM sodium pyrophosphate (PPi) and were then measured for changes in absorbance at 340 nm over a period of 30 minutes. […]

T47D = assay: Cell growth inhibition; assay type: cell-based; settings: Homo sapiens
Description: (§1) HeLa and T47D cell lines were cultured in a 10% CO2 humidified atmosphere at 37° C. as exponentially growing monolayers in Dulbecco's modified Eagle's medium (DMEM) with glutamax (Invitrogen), supplemented with 10% fetal calf serum (Invitrogen) and penicillin/streptomycin (100 U/ml and 100 μg/ml). The human cervical carcinoma cell line, HeLa, was kindly provided by Dr. J. Kim (Louisiana State University) and the human breast carcinoma cell line, T47D, was obtained from the American Type Culture Collection (Manassas, Va.).
Cell growth inhibition was determined by an XTT-based in-vitro toxicology assay (Sigma-Aldrich) or trypan blue staining. […] After 36 hours of incubation with either vehicle or compounds, cells were trypsinized and cell viability was determined by the trypan blue exclusion assay using a hemacytometer. […] After the appropriate treatment described above, cells were incubated with 0.1 mg/ml of 2,3-bis(2-methoxy-4-nitro-5-sulfophenyl)-5-[(phenylamino)carbonyl]-2H-tetrazolium hydroxide (XTT) for 4 hours, and then cell number was determined by the absorbance at 470 nm, which is proportional to the number of cells that remained attached to the plate. […] The appearance of apoptotic or necrotic cells was determined by flow cytometric analysis of cells double stained with Annexin V-FITC and propidium iodide (PI). […]

HeLa and T47D cells = assay: Cell growth inhibition (XTT or trypan blue); assay type: cell-based, human; settings: for cell survival compared to unexposed cells: 25 μM
Description: as §1
Cell growth inhibition was determined by an XTT-based in-vitro toxicology assay (Sigma-Aldrich) or trypan blue staining. Cells were plated at a density of 3.5×10^4 per well in a 24-well plate in DMEM containing 10% FCS. These cells were allowed to attach for 24 hours, and the media were replaced with fresh media containing either vehicle (dimethyl sulfoxide) or appropriate concentrations of test compounds. After 36 hours of incubation with either vehicle or compounds, cells were trypsinized and cell viability was determined by the trypan blue exclusion assay using a hemacytometer. For the XTT assay, cells were seeded into 96-well cell culture plates at a density of 0.6×10^4 per well. After the appropriate treatment described above, cells were incubated with 0.1 mg/ml of 2,3-bis(2-methoxy-4-nitro-5-sulfophenyl)-5-[(phenylamino)carbonyl]-2H-tetrazolium hydroxide (XTT) for 4 hours, and then cell number was determined by the absorbance at 470 nm, which is proportional to the number of cells that remained attached to the plate. GI50s were calculated as the inhibitor concentration needed for 50% of vehicle-treated cell growth. The appearance of apoptotic or necrotic cells was determined by flow cytometric analysis of cells double stained with Annexin V-FITC and propidium iodide (PI). […] The fluorescence of samples were analyzed by flow cytometry (FACSCalibur®, Becton Dickinson Immunocytometry, San Jose, Calif.) using the CellQuest (BD Bioscience, Immunocytometry Systems, San Jose, Calif., USA) software.

HeLa cells [3] = assay: Flow-cytometric analysis of cell death (Annexin V-FITC / PI); assay type: cell-based, human
Description: Cell growth inhibition was determined by an XTT-based in-vitro toxicology assay (Sigma-Aldrich) or trypan blue staining. Cells were plated at a density of 3.5×10^4 per well in a 24-well plate in DMEM containing 10% FCS. These cells were allowed to attach for 24 hours, and the media were replaced with fresh media containing either vehicle (dimethyl sulfoxide) or appropriate concentrations of test compounds. After 36 hours of incubation with either vehicle or compounds, cells were trypsinized and cell viability was determined by the trypan blue exclusion assay using a hemacytometer. For the XTT assay, cells were seeded into 96-well cell culture plates at a density of 0.6×10^4 per well. After the appropriate treatment described above, cells were incubated with 0.1 mg/ml of 2,3-bis(2-methoxy-4-nitro-5-sulfophenyl)-5-[(phenylamino)carbonyl]-2H-tetrazolium hydroxide (XTT) for 4 hours, and then cell number was determined by the absorbance at 470 nm, which is proportional to the number of cells that remained attached to the plate. GI50s were calculated as the inhibitor concentration needed for 50% of vehicle-treated cell growth. The appearance of apoptotic or necrotic cells was determined by flow cytometric analysis of cells double stained with Annexin V-FITC and propidium iodide (PI). Apoptotic and necrotic cells were distinguished on the basis of double-labeling for Annexin V-FITC (Sigma-Aldrich) and PI, a membrane-impermeable DNA stain. Floating and freshly trypsinized cells were pooled, washed twice in binding buffer, and processed following manufacturer's instructions. The fluorescence of samples were analyzed by flow cytometry (FACSCalibur®, Becton Dickinson Immunocytometry, San Jose, Calif.) using the CellQuest (BD Bioscience, Immunocytometry Systems, San Jose, Calif., USA) software.

HeLa cells [4] = assay: Cellular Fru-2,6-BP level determination; assay type: cell-based, human; settings: 25 μM, 8 hour exposure
Description: HeLa cells were plated at a density of 2.5×10^5 in a 6-well plate in DMEM containing 10% FCS. The media were replaced with fresh DMEM containing either vehicle (dimethyl sulfoxide) or 25 μM of inhibitor the following day. After 0, 4, 8, 12, 24, or 48 hours of incubation with each inhibitor, media samples were collected for measuring the lactate secretion levels using a lactate oxidase-based assay kit (Sigma-Aldrich), and the lactate concentration was normalized to the total cellular protein concentration. The Fru-2,6-BP level was determined with collected cells at times of 0, 4, 8, 12, 24, or 48 hours after the treatment, using the method described previously.

PFKFB4 = molecular target: T2, PFKFB4 (Homo sapiens, UniProt Q16877); assay: 2-Kase selectivity assay on PFKFB isoforms; assay type: biochemical; settings: at twice the IC50 for PFKFB3 (N4A=6 μM, YN1=1.3 μM)
T2 construct: His6; made in house; host or cells: Escherichia coli C41(DE3)
Description: (§2) To determine steady-state initial reaction rates, the 2-Kase reactions were performed first and the Fru-2,6-BP produced was measured by a conventional enzyme-coupled kinetics assay as described previously. The compounds, N4A and RBC2 came from the National Cancer Institute as indicated in Example 1. […] Initial rates of decrease in absorbance (Abs) at 340 nm were corrected with the rate of the control reaction in which no Fru-2,6-BP was present. Negative controls were carried out in the absence of enzyme and positive controls indicate the reaction in the presence of enzyme without inhibitor compounds. The percentage of Inhibitory activity was calculated according to the formula: % inhibition=100×[1−(Absnegative control−Abscompound)/(Absnegative control−Abspositive control)]. IC50 values were determined in quadruplicate. For the kinetic studies, concentrations of one of substrate and inhibitor were varied, and decrease in absorbance at 340 nm was measured. The inhibition patterns were analyzed using the program written by Cleland, in which Ki is the dissociation constants for the inhibitor from enzyme-inhibitor complex. For Selectivity studies, the 2-Kase assays were performed first and the F-2,6-P2 produced was measured by an enzyme coupled kinetics assay as described above. The His6-tagged PFKFB isoforms, PFKFB1, PFKFB2, and PFKFB4 were expressed in Escherichia coli C41(DE3) and purified using Ni-NTA affinity columns.

PFKFB1 = molecular target: T3, PFKFB1 (Homo sapiens, UniProt P16118); assay: 2-Kase selectivity assay on PFKFB isoforms; assay type: biochemical; settings: at twice the IC50 for PFKFB3 (N4A=6 μM, YN1=1.3 μM)
T3 construct: His6; made in house; host or cells: Escherichia coli C41(DE3)
Description: as §2

PFKFB2 = molecular target: T4, PFKFB2 (Homo sapiens, UniProt O60825); assay: 2-Kase selectivity assay on PFKFB isoforms; assay type: biochemical; settings: at twice the IC50 for PFKFB3 (N4A=6 μM, YN1=1.3 μM)
T4 construct: His6; made in house; host or cells: Escherichia coli C41(DE3)
Description: as §2

HeLa cells [5] = assay: Soft agar colony formation; assay type: cell-based, human
Description: HeLa cell colony formation was determined by soft agar assay. Cells (2×10^3) were mixed in DMEM medium containing 0.35% agarose and varying concentrations of N4A or YN1. Then the cell mixture was added on a layer of 0.6% concentration of bottom agar in 24 well plate and allowed to grow for three weeks at 37° C. under 5% CO2. Fresh medium containing the inhibitors or vehicle (DMSO) was changed every four days. Colonies of 50 cells or more were counted after three weeks. The experiments were repeated at least five times.

T1 sequence (Q16875 whole entry): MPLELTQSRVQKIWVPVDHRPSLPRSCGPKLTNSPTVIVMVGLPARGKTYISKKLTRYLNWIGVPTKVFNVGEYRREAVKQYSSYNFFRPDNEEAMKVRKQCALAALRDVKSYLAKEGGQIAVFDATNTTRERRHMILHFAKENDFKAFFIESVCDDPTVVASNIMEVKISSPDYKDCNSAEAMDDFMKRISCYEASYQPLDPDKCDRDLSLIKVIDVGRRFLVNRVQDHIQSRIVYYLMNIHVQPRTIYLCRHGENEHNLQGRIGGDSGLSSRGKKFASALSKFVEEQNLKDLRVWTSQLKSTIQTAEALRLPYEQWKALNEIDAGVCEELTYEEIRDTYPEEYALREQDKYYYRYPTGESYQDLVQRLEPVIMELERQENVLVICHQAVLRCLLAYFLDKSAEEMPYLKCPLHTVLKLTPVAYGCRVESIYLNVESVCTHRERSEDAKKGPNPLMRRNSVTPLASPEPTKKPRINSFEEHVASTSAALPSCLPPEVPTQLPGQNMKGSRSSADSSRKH
T2 sequence (Q16877 whole entry, canonical isoform): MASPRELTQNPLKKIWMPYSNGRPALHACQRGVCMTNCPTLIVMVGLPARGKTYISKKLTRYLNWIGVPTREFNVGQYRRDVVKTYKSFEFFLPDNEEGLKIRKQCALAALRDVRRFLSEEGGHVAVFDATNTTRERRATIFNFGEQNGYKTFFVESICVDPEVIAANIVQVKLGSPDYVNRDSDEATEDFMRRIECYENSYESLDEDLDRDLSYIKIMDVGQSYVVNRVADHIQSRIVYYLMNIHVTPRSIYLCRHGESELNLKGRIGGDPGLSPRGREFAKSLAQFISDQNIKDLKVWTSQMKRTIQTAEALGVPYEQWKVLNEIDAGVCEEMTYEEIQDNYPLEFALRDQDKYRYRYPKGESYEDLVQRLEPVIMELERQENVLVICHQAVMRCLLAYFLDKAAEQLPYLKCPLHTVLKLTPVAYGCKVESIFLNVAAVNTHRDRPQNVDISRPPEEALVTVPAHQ
T4 sequence (O60825 whole entry, canonical isoform): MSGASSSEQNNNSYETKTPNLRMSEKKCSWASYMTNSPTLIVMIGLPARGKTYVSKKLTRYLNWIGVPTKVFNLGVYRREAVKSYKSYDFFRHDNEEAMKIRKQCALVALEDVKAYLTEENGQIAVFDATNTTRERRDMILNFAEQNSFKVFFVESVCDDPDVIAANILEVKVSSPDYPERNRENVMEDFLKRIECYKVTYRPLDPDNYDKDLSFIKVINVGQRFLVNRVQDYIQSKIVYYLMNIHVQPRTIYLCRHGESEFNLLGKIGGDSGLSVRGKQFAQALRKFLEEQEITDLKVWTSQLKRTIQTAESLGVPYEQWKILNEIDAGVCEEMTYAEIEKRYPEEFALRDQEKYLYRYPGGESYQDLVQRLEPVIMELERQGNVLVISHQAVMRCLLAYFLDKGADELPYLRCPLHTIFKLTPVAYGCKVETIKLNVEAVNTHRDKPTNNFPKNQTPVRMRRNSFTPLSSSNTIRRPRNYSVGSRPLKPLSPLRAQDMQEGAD
T3 sequence (P16118 whole entry, canonical isoform): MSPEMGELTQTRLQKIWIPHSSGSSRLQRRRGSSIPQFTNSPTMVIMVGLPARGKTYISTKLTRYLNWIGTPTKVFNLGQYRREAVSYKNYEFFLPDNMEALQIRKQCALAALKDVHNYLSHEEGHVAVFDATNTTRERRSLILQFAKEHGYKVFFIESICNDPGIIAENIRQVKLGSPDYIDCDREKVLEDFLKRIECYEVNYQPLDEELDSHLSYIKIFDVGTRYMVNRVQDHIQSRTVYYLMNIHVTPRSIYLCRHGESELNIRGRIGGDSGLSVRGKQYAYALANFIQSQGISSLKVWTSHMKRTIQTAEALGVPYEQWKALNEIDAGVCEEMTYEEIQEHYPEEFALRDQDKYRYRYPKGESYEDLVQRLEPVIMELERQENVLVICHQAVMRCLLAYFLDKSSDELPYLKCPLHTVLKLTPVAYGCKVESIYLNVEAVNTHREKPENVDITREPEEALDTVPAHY

SMILES | GI50 (MCF7) [µM] | Inhibition (type) (human PFKFB3 [1]) | inhibition pattern (human PFKFB3 [2]) | GI50 (T47D) [µM] | cell survival compared to unexposed cells (HeLa and T47D cells) | inhibition at 10 µM (human PFKFB3 [1]; 10 μM, substrate-saturating conditions, not affected by 0.1% Tween-20) [%] | IC50 (human PFKFB3 [1]; PFKFB3 2-kinase activity) [µM] | Ki (human PFKFB3 [1]; competitive against Fru-6-P) [µM] | type of cell death at low concentration (HeLa cells [3]; 25 μM) | type of cell death induced (HeLa cells [3]; 25 μM and 50 μM) | type of cell death at higher concentration (HeLa cells [3]; 50 μM) | reduction of Fru-2,6-BP (ratio to control) (HeLa cells [4]) | percent inhibition of PFKFB4 (PFKFB4) | percent inhibition of PFKFB1 (PFKFB1) | percent inhibition of PFKFB2 (PFKFB2) | inhibition at 25 µM (HeLa cells [5]; Homo sapiens, 504 h, soft agar, 25 μM, 3 weeks, read-out: colony formation inhibited) [%] | effect on colony formation (HeLa cells [5]; soft agar, 25, 50 and 100 μM) | GI50 (HeLa and T47D cells; Homo sapiens, 36 h, cell line not stated in Table 1 (HeLa and T47D tested)) [µM]
CCOC(=O)C=C(C)Sc1cc(O)c2ccccc2c1O (stereo in doubt) [RBC2, (Z)-ethyl 3-((1,4-dihydroxynaphthalen-2-yl)thio)but-2-enoate] | 4.4 | Competitive | competitive inhibition | 3.5 | – | – | – | – | – | – | – | – | – | – | – | – | – | –
O=c1cc(-c2ccc(O)cc2)oc2c(O)c(O)c(O)c(O)c12 [Compound N4A, 5,6,7,8-tetrahydroxy-2-(4-hydroxyphenyl)chromene-4-one] | – | competitive inhibitor against Fru-6-P | – | – | significant reduction in cell survival | > 65 | 2.97 ± 0.16 | 1.29 ± 0.26 | cells were found to be prone to apoptosis | induced both apoptotic and necrotic cell death | death by necrosis was significantly increased | approximately 20% | less than 50% | less than 50% | less than 50% | 64 | significantly inhibited colony formation | –
CCOC(=O)c1cc2ccc(O)cc2oc1=O [YZ9, ethyl 7-hydroxy-2-oxochromene-3-carboxylate] | – | – | – | – | significant reduction in cell survival | – | – | – | – | – | – | – | – | – | – | – | – | 2.7
